One assay deals with BRD4(BD1) (Homo sapiens (Human), UniProt O60885). Description: In vitro enzyme inhibition assay (BRD4 AlphaScreen). In kind it is binding. An outline of the steps: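 AlphaScreen proximity readout, using streptavidin donor and Ni-chelate acceptor beads at 5 μg/mL final, monitors biotin-H4 tetraacetylated peptide interaction with purified His-tagged BRD4.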
(In general: In Alpha technology, singlet oxygen from a donor bead excites a nearby acceptor bead.)

For assay [1], the system named is Raji, human Burkitts lymphoma cells. Description: Cell-MTS proliferation assay, Raji. The format is cell-based. To be noted: Homo sapiens, 168 hr. An outline of the steps: (§1)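 Seven-day colorimetric MTS assay; compound at 11 concentrations from 100 μM down to 2.0 nM final, added a day after plating. IC50 from OD490 normalised to DMSO controls.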
For orientation: Tetrazolium dyes change colour on reduction, which living cells bring about.

The subject of assay [2] is HL-60, human proleukemia cells. Description: Cell-MTS proliferation assay, HL-60. The settings on record: Homo sapiens, 168 hr. In kind it is cell-based. An outline of the steps:
as §1

The subject of assay [3] is NCI-H460, human non-small cell lung cancer cells. The assay can be described thus: Cell-MTS proliferation assay, NCI-H460. The format is cell-based. The settings on record: Homo sapiens, 168 hr. An outline of the steps:
as §1

Setting [4] is: in vitro enzyme inhibition assay.
The mark [5] stands for this setting: Cell-MTS proliferation, Raji cells.
[6] abbreviates: Cell-MTS proliferation, HL-60 cells.
[7] abbreviates: Cell-MTS proliferation, NCI-H460 cells.
The mark [8] stands for this setting: NCI-H460, Cell-MTS proliferation.
Setting [9] is: Raji, Cell-MTS, class symbols A/B/C.
Where [10] appears, read: HL-60, Cell-MTS, class symbols A/B/C.
[11] abbreviates: NCI-H460, Cell-MTS, class symbols A/B/C.

One may read the IC50 as the concentration that gives 50% inhibition. Consider `Cc1cc(-c2cc(CS(C)(=O)=O)ccc2Oc2ccc(F)cc2F)cn(C)c1=O` [Example 455, 5-[2-(2,4-difluorophenoxy)-5-(methylsulfonylmethyl)phenyl]-1,3-dimethylpyridin-2-one], for which the IC50 at BRD4(BD1) (setting [4]) was below 500 nM; in assay [1] (setting [5]), below 500 nM; in assay [2] (setting [6]), below 500 nM; in assay [3] (setting [7]) it was above 5000 nM.
`CCOc1ccc(S(C)(=O)=O)cc1-c1cn(C)c(=O)c2ccccc12` [Example 177, 4-(2-ethoxy-5-methylsulfonylphenyl)-2-methylisoquinolin-1-one]: the IC50 against BRD4(BD1) (setting [4]) is below 500 nM; in assay [1] (Raji, Cell-MTS proliferation), 500 to 5000 nM; in assay [2] (HL-60, Cell-MTS proliferation) it was below 500 nM; in assay [3] (setting [8]), above 5000 nM.
Consider `Cn1cc(-c2cn(CS(C)(=O)=O)c(=O)cc2Oc2ccc(F)cc2F)ccc1=O` [Example 386, 4-(2,4-difluorophenoxy)-5-(1-methyl-6-oxopyridin-3-yl)-1-(methylsulfonylmethyl)pyridin-2-one], for which the IC50 was below 500 nM against BRD4(BD1) (setting [4]), 500 to 5000 nM in assay [1] (setting [5]), 500 to 5000 nM in assay [2] (setting [6]) and above 5000 nM in assay [3] (setting [7]).
`Cn1cc(-c2cc(CS(C)(=O)=O)ccc2Oc2ccc(F)cc2F)ccc1=O` [Example 470, 5-[2-(2,4-difluorophenoxy)-5-(methylsulfonylmethyl)phenyl]-1-methylpyridin-2-one]: the IC50 at BRD4(BD1) (setting [4]) is below 500 nM; in assay [1] (setting [5]) it was below 500 nM; in assay [2] (setting [6]), below 500 nM; in assay [3] (setting [7]) it was 500 to 5000 nM.
As to `CCS(=O)(=O)Nc1cccc(-c2cn(C)c(=O)c3ccc(-c4ccccn4)cc23)c1` [Example 87, N-[3-(2-methyl-1-oxo-6-pyridin-2-ylisoquinolin-4-yl)phenyl]ethanesulfonamide], the IC50 is 500 to 5000 nM on BRD4(BD1) (class symbols A/B/C), 500 to 5000 nM in assay [1] (setting [9]), below 500 nM in assay [2] (setting [10]) and above 5000 nM in assay [3] (setting [11]).
Consider `COc1ccc2c(=O)n(C)cc(-c3cc(S(C)(=O)=O)ccc3OCC3CC3)c2c1` [Example 198, 4-(2-(cyclopropylmethoxy)-5-(methylsulfonyl)phenyl)-6-methoxy-2-methylisoquinolin-1(2H)-one], for which the IC50 on BRD4(BD1) (setting [4]) was below 500 nM; in assay [1] (Raji, Cell-MTS proliferation), below 500 nM; in assay [2] (HL-60, Cell-MTS proliferation) it was below 500 nM; in assay [3] (setting [8]), above 5000 nM.
Consider `CCS(=O)(=O)c1ccc(OC)c(-c2cn(C)c(=O)c3ccc(-c4cn[nH]c4)cc23)c1` [Example 210, 4-(5-ethylsulfonyl-2-methoxyphenyl)-2-methyl-6-(1H-pyrazol-4-yl) isoquinolin-1-one], for which the IC50 against BRD4(BD1) (setting [4]) is below 500 nM; in assay [1] (Raji, Cell-MTS proliferation) it was below 500 nM; in assay [2] (HL-60, Cell-MTS proliferation), below 500 nM; in assay [3] (setting [8]), above 5000 nM.
As for `COCC1COc2c(cc(S(C)(=O)=O)cc2-c2cn(C)c(=O)c3ccccc23)O1` (centres unmarked) [Example 501, 4-[2-(methoxymethyl)-7-methylsulfonyl-2,3-dihydro-1,4-benzodioxin-5-yl]-2-methylisoquinolin-1-one], the IC50 is below 500 nM against BRD4(BD1) (setting [4]), 500 to 5000 nM in assay [1] (setting [5]), 500 to 5000 nM in assay [2] (setting [6]) and above 5000 nM in assay [3] (setting [7]).
On to `CCS(=O)(=O)c1ccc(OCC2CC2)c(-c2cn(C)c(=O)c3sc(C(N)=O)cc23)c1` [Example 265, 4-[2-(cyclopropylmethoxy)-5-ethylsulfonylphenyl]-6-methyl-7-oxothieno[2,3-c]pyridine-2-carboxamide], for which the IC50 against BRD4(BD1) (setting [4]) was below 500 nM; in assay [1] (Raji, Cell-MTS proliferation), below 500 nM; in assay [2] (HL-60, Cell-MTS proliferation), below 500 nM; in assay [3] (setting [8]), above 5000 nM.
For `Cc1cc(-c2cc(S(C)(=O)=O)ccc2OCC2CC2)nn(C)c1=O` [Example 136, 6-[2-(cyclopropylmethoxy)-5-methylsulfonylphenyl]-2,4-dimethylpyridazin-3-one], the IC50 at BRD4(BD1) (class symbols A/B/C) was 500 to 5000 nM; in assay [1] (setting [9]), above 5000 nM; in assay [2] (setting [10]), 500 to 5000 nM; in assay [3] (setting [11]), above 5000 nM.
On to `CCS(=O)(=O)c1ccc(OCC2CC2)c(-c2cn(C)c(=O)c3c2CCCC3)c1` [Example 219, 4-[2-(cyclopropylmethoxy)-5-ethylsulfonylphenyl]-2-methyl-5,6,7,8-tetrahydroisoquinolin-1-one], for which the IC50 was below 500 nM against BRD4(BD1) (setting [4]); below 500 nM in assay [1] (Raji, Cell-MTS proliferation); below 500 nM in assay [2] (HL-60, Cell-MTS proliferation); above 5000 nM in assay [3] (setting [8]).
Consider `CCS(=O)(=O)Nc1ccc(Oc2ccc(F)cc2F)c(-c2cc(OC)c(=O)n(C)c2)c1` [Example 443, N-[4-(2,4-difluorophenoxy)-3-(5-methoxy-1-methyl-6-oxopyridin-3-yl)phenyl]ethanesulfonamide], for which the IC50 against BRD4(BD1) (setting [4]) was below 500 nM; in assay [1] (setting [5]), below 500 nM; in assay [2] (setting [6]) it was below 500 nM; in assay [3] (setting [7]) it was above 5000 nM.
For the compound `COc1cc(-c2nc(S(C)(=O)=O)ncc2Oc2ccc(F)cc2F)cn(C)c1=O` [Example 150, 5-[5-(2,4-difluorophenoxy)-2-methylsulfonylpyrimidin-4-yl]-3-methoxy-1-methylpyridin-2-one], the IC50 is below 500 nM against BRD4(BD1) (setting [4]); 500 to 5000 nM in assay [1] (Raji, Cell-MTS proliferation); 500 to 5000 nM in assay [2] (HL-60, Cell-MTS proliferation); above 5000 nM in assay [3] (setting [8]).
Regarding `CCS(=O)(=O)Nc1ncc(OCC2CC2)c(-c2cn(C)c(=O)c3ccc(F)cc23)n1` [Example 157, N-[5-(cyclopropylmethoxy)-4-(6-fluoro-2-methyl-1-oxoisoquinolin-4-yl)pyrimidin-2-yl]ethanesulfonamide], the IC50 against BRD4(BD1) (setting [4]) is below 500 nM; in assay [1] (Raji, Cell-MTS proliferation) it was below 500 nM; in assay [2] (HL-60, Cell-MTS proliferation), below 500 nM; in assay [3] (setting [8]), above 5000 nM.
For the compound `Cn1cc(-c2cc(S(C)(=O)=O)ccc2Oc2ccc(F)cc2F)c2ccccc2c1=O` [Example 92, 4-[2-(2,4-difluorophenoxy)-5-methylsulfonylphenyl]-2-methylisoquinolin-1-one], the IC50 against BRD4(BD1) (class symbols A/B/C) is below 500 nM; in assay [1] (setting [9]) it was below 500 nM; in assay [2] (setting [10]), below 500 nM; in assay [3] (setting [11]), above 5000 nM.
Take `Cc1cc(-c2cc(N(C3COC3)S(C)(=O)=O)ccc2Oc2ccc(F)cc2F)cn(C)c1=O` [Example 230, N-[4-(2,4-difluorophenoxy)-3-(1,5-dimethyl-6-oxopyridin-3-yl)phenyl]-N-(oxetan-3-yl)methanesulfonamide]: the IC50 against BRD4(BD1) (setting [4]) is below 500 nM; in assay [1] (Raji, Cell-MTS proliferation), below 500 nM; in assay [2] (HL-60, Cell-MTS proliferation), below 500 nM; in assay [3] (setting [8]) it was above 5000 nM.
For `CCS(=O)(=O)Nc1ccc(Oc2ccc(F)cc2F)c(-c2cn(C)c(=O)c3ccccc23)c1` [Example 93, N-[4-(2,4-difluorophenoxy)-3-(2-methyl-1-oxoisoquinolin-4-yl)phenyl]ethanesulfonamide], the IC50 was below 500 nM against BRD4(BD1) (class symbols A/B/C), below 500 nM in assay [1] (setting [9]), below 500 nM in assay [2] (setting [10]) and above 5000 nM in assay [3] (setting [11]).
As to `CCS(=O)(=O)Nc1ccc(O[C@H]2CC[C@H](O)CC2)c(-c2cc(C)c(=O)n(C)c2)c1` [Example 430, N-[3-(1,5-dimethyl-6-oxopyridin-3-yl)-4-(trans-4-hydroxycyclohexyl)oxyphenyl]ethanesulfonamide], the IC50 on BRD4(BD1) (setting [4]) is below 500 nM; in assay [1] (setting [5]), below 500 nM; in assay [2] (setting [6]), below 500 nM; in assay [3] (setting [7]), above 5000 nM.
Consider `CCS(=O)(=O)Nc1cnc(OCC2CC2)c(-c2cn(C)c(=O)c3ccccc23)c1` [Example 320, N-[6-(cyclopropylmethoxy)-5-(2-methyl-1-oxoisoquinolin-4-yl)pyridin-3-yl]ethanesulfonamide], for which the IC50 against BRD4(BD1) (setting [4]) was below 500 nM; in assay [1] (Raji, Cell-MTS proliferation) it was below 500 nM; in assay [2] (HL-60, Cell-MTS proliferation), below 500 nM; in assay [3] (setting [8]), above 5000 nM.
For `CCS(=O)(=O)c1ccc(NCC2CC2)c(-c2cn(C)c(=O)c3cc(F)ccc23)c1` [Example 195, 4-[2-(cyclopropylmethylamino)-5-ethylsulfonylphenyl]-7-fluoro-2-methylisoquinolin-1-one], the IC50 on BRD4(BD1) (setting [4]) is below 500 nM; in assay [1] (Raji, Cell-MTS proliferation), below 500 nM; in assay [2] (HL-60, Cell-MTS proliferation) it was below 500 nM; in assay [3] (setting [8]) it was above 5000 nM.
Turning to `CN(C)c1cc(-c2cc(S(C)(=O)=O)ccc2NCC2CC2)cn(C)c1=O` [Example 438, 5-[2-(cyclopropylmethylamino)-5-methylsulfonylphenyl]-3-(dimethylamino)-1-methylpyridin-2-one], the IC50 against BRD4(BD1) (setting [4]) is below 500 nM; in assay [1] (setting [5]), below 500 nM; in assay [2] (setting [6]) it was below 500 nM; in assay [3] (setting [7]), above 5000 nM.
Take `Cc1cc(-c2cc(S(C)(=O)=O)ccc2Nc2ccc(F)cc2F)cn(C)c1=O` [Example 398, 5-[2-(2,4-difluoroanilino)-5-methylsulfonylphenyl]-1,3-dimethylpyridin-2-one]: the IC50 against BRD4(BD1) (setting [4]) was below 500 nM; in assay [1] (setting [5]), 500 to 5000 nM; in assay [2] (setting [6]), below 500 nM; in assay [3] (setting [7]), above 5000 nM.
On to `Cn1cc(-c2cc(CS(C)(=O)=O)ccc2OCC(F)(F)F)n2cncc2c1=O` [Example 370, 7-methyl-5-[5-(methylsulfonylmethyl)-2-(2,2,2-trifluoroethoxy)phenyl] imidazo[1,5-a]pyrazin-8-one], for which the IC50 on BRD4(BD1) (setting [4]) is below 500 nM; in assay [1] (Raji, Cell-MTS proliferation) it was 500 to 5000 nM; in assay [2] (HL-60, Cell-MTS proliferation), 500 to 5000 nM; in assay [3] (setting [8]), above 5000 nM.

The record behind these values is US10023592B2, “Bromodomain inhibitors” (Celgene Quanticel Research, Inc., priority 2013, dated 2018).
